Assays:
Assay type in all cases: in vivo, ApoE−/− mice
NFKb1 = assay: Aortic mural gene expression, RT-PCR (TLDA); conditions: fold change over ApoE−/− control; aorta, 28 days Ang II infusion
Protocol: Total RNA was extracted from homogenized aortas using the Qiazol lysis reagent and RNeasy Lipid Tissue Mini kit. DNAse treatment was included in the procedure. RNA concentration was determined utilizing the Quant iT RNA assay kit. Complimentary deoxyribonucleic acid (cDNA) was synthesized from 1 μg RNA using High reverse cDNA transcription kit. Briefly the reaction tubes containing RNA, reverse transcriptase, buffer, RNAse inhibitor, and nuclease free water were incubated at 25° C. for 10 minutes to allow annealing. […] The cDNA samples were cooled at 4° C. and stored at −80° C. until further use.
Real time PCR was performed using a 384-well Taqman low density array (TLDA) card. Each sample specific PCR mix contained 50 ng of total RNA converted to cDNA. The PCR reaction for Taqman assays contained 50 μl Master Mix (Taqman Universal PCR Master Mix,) and 50 ul of cDNA and RNAase free water. Assays were performed to include appropriate controls (no template control). The RT-PCR protocol included an initial step of 50° C. […] Fluorescence data was collected at 60° C. Fluorescence was quantified with ABI PRISM 7900HT Sequence Detection System. To verify amplification of a specific target cDNA, data generated was analyzed using SDS 2.2.3 software (Sequence Detection System Software, Applied Biosystems). […] For relative quantification (RQ), pooled ApoE−/− control was used as the calibrator (with expression equal to 1).

CCR5 = assay: Aortic mural gene expression, RT-PCR (TLDA); conditions: fold change over ApoE−/− control; aorta, 28 days Ang II infusion
Protocol: (§1) ApoE−/− mice used in this study were divided into different pretreatment groups: 1) Fluvastatin-MF; 2) Doxycycline-MD; 3) Irbesartan-MI; 4) Telmisartan-MT; 5) Control (water) and fed medicated chow or medicated drinking water 1 week prior to pump implantation. AngII (1000 ng·kg^−1 of body weight·min^−1) was infused subcutaneously via Alzet mini-osmotic pumps for 28 days. All mice were maintained on the medicated chow (MI & MT) or medicated drinking water (MF & MD) treatments which were delivered daily for a total of 28 days following pump implantation.
(§2) In order to determine the effect of the various treatments on the progressive enlargement of the experimental AAAs the mice were followed with high frequency trans-abdominal ultrasound. Maximum aortic diameter was measured and recorded prior to pump implantation and then at 3, 7, 14, 21, and 28 days. All mice were sacrificed 28 days after pump implantation. Aortae were harvested and subjected to either histological analysis (Elastic Masson trichome, MAC2, CD31 and TUNEL staining) and analysis of mural gene expression. Plasma drug concentrations of experimental compounds were quantified on the day of sacrifice using high performance liquid chromatography (HPLC).
(§3) Total RNA was extracted from homogenized aortas using the Qiazol lysis reagent and RNeasy Lipid Tissue Mini kit. DNAse treatment was included in the procedure. RNA concentration was determined utilizing the Quant iT RNA assay kit. Complimentary deoxyribonucleic acid (cDNA) was synthesized from 1 μg RNA using High reverse cDNA transcription kit. Briefly the reaction tubes containing RNA, reverse transcriptase, buffer, RNAse inhibitor, and nuclease free water were incubated at 25° C. for 10 minutes to allow annealing. Reverse transcription was performed at 37° C. for 120 min, followed by a 5 sec incubation at 85° C. to inactivate the reverse transcriptase enzyme. The cDNA samples were cooled at 4° C. and stored at −80° C. until further use.
(§4) Real time PCR was performed using a 384-well Taqman low density array (TLDA) card. Each sample specific PCR mix contained 50 ng of total RNA converted to cDNA. The PCR reaction for Taqman assays contained 50 μl Master Mix (Taqman Universal PCR Master Mix,) and 50 ul of cDNA and RNAase free water. Assays were performed to include appropriate controls (no template control). The RT-PCR protocol included an initial step of 50° C. (2 minutes) […], denaturation by a hot start at 95° C. for 10 min, followed by 40 cycles of a 2 step program (denaturation at 95° C. for 15 secs for primer annealing/extension at 60° C. for 1 min). Fluorescence data was collected at 60° C. Fluorescence was quantified with ABI PRISM 7900HT Sequence Detection System. To verify amplification of a specific target cDNA, data generated was analyzed using SDS 2.2.3 software (Sequence Detection System Software, Applied Biosystems). For all amplification plots, the baseline data were set with the automatic CT function available with SDS 2.2.3 calculating the optimal baseline range and threshold value by using the AutoCT algorithm. According to the manufacturer's instruction, a CT value of ≧39 corresponds to nonspecific amplification marking the limits of detection. For endogenous control GAPDH was normalized to B2M. For relative quantification (RQ), pooled ApoE−/− control was used as the calibrator (with expression equal to 1).

Cybb = assay: Aortic mural gene expression, RT-PCR (TLDA); conditions: fold change over ApoE−/− control; aorta, 28 days Ang II infusion
Protocol: as §1, §2, §3, §4

Vav1 = assay: Aortic mural gene expression, RT-PCR (TLDA); conditions: fold change over ApoE−/− control; aorta, 28 days Ang II infusion
Protocol: as §1, §2, §3, §4

TIMP2 = assay: Aortic mural gene expression, RT-PCR (TLDA); conditions: fold change over ApoE−/− control; aorta, 28 days Ang II infusion
Protocol: as §1, §2, §3, §4

Rac2 = assay: Aortic mural gene expression, RT-PCR (TLDA); conditions: fold change over ApoE−/− control; aorta, 28 days Ang II infusion
Protocol: as §1, §2, §3, §4

Cathepsin B = assay: Aortic mural gene expression, RT-PCR (TLDA); conditions: fold change over ApoE−/− control; aorta, 28 days Ang II infusion
Protocol: as §1, §2, §3, §4

ITGB2 = assay: Aortic mural gene expression, RT-PCR (TLDA); conditions: fold change over ApoE−/− control; aorta, 28 days Ang II infusion
Protocol: as §1, §2, §3, §4

Runx3 = assay: Aortic mural gene expression, RT-PCR (TLDA); conditions: fold change over ApoE−/− control; aorta, 28 days Ang II infusion
Protocol: as §1, §2, §3, §4

MAPK8 = assay: Aortic mural gene expression, RT-PCR (TLDA); conditions: fold change over ApoE−/− control; aorta, 28 days Ang II infusion
Protocol: as §1, §2, §3, §4

CXCR4 = assay: Aortic mural gene expression, RT-PCR (TLDA); conditions: fold change over ApoE−/− control; aorta, 28 days Ang II infusion
Protocol: as §1, §2, §3, §4

HMOX 1 = assay: Aortic mural gene expression, RT-PCR (TLDA); conditions: fold change over ApoE−/− control; aorta, 28 days Ang II infusion
Protocol: as §1, §2, §3, §4

CCR2 = assay: Aortic mural gene expression, RT-PCR (TLDA); conditions: fold change over ApoE−/− control; aorta, 28 days Ang II infusion
Protocol: as §1, §2, §3, §4

TNF-α = assay: Aortic mural gene expression, RT-PCR (TLDA); conditions: fold change over ApoE−/− control; aorta, 28 days Ang II infusion
Protocol: as §1, §2, §3, §4

AAA = assay: Aortic diameter by ultrasonography, ApoE−/−+Ang II AAA model; conditions: pretreatment 1 week before Ang II infusion, followed to 28 days, versus control and doxycycline
Excerpt: The ApoE^−/−+Ang II AAA model is well established and supported by current scientific literature. Mice genetically predisposed to hypercholesterolemia develop aneurysms when treated with angiotensin II. Aneurysms generally develop within the first week after pump implantation and share many important pathologic characteristics with human AAA disease. ApoE−/− mice used in this study were divided into different pretreatment groups: 1) Fluvastatin-MF; 2) Doxycycline-MD; 3) Irbesartan-MI; 4) Telmisartan-MT; 5) Control (water) and fed medicated chow or medicated drinking water 1 week prior to pump implantation. AngII (1000 ng·kg^−1 of body weight·min^−1) was infused subcutaneously via Alzet mini-osmotic pumps for 28 days. All mice were maintained on the medicated chow (MI & MT) or medicated drinking water (MF & MD) treatments which were delivered daily for a total of 28 days following pump implantation. In order to determine the effect of the various treatments on the progressive enlargement of the experimental AAAs the mice were followed with high frequency trans-abdominal ultrasound. Maximum aortic diameter was measured and recorded prior to pump implantation and then at 3, 7, 14, 21, and 28 days. All mice were sacrificed 28 days after pump implantation. Aortae were harvested and subjected to either histological analysis (Elastic Masson trichome, MAC2, CD31 and TUNEL staining) and analysis of mural gene expression. Plasma drug concentrations of experimental compounds were quantified on the day of sacrifice using high performance liquid chromatography (HPLC).

aneurysm = assay: Aneurysm incidence over time, ApoE−/−+Ang II AAA model; conditions: aneurysm = dissection or more than 50% increase in diameter, versus doxycycline and saline control
Protocol: as §1, §2
Aneurysm was defined as either the presence of dissection or more than 50% increase in diameter.

In the case of `CC(C)n1c(/C=C/C(O)CC(O)CC(=O)O)c(-c2ccc(F)cc2)c2ccccc21` (stereo not shown) [Fluvastatin], the NFKb1 expression (NFKb1) was “− (0 to 1 = −)”, the CCR5 expression (CCR5) was “+++ (3.1 to 10 = +++)” and the Cybb expression (Cybb) was “++ (1.51 to 3 = ++)”. For the same compound, the Vav1 expression (Vav1) was “++ (1.51 to 3 = ++)”, the TIMP2 expression (TIMP2) was “− (0 to 1 = −)” and the Rac2 expression (Rac2) was “+ (1.1 to 1.5 = +)”. The “Cathepsin B expression” value (Cathepsin B) was “+ (1.1 to 1.5 = +)”, the ITGB2 expression (ITGB2) was “++ (1.51 to 3 = ++)” and the Runx3 expression (Runx3) was “++ (1.51 to 3 = ++)”. The MAPK8 expression (MAPK8) was “− (0 to 1 = −)”, the CXCR4 expression (CXCR4) was “+++ (3.1 to 10 = +++)” and the “HMOX 1 expression” value (HMOX 1) was “+++ (3.1 to 10 = +++)”. The CCR2 expression (CCR2) was “+++ (3.1 to 10 = +++)”, the TNF-α expression (TNF-α) was “++ (1.51 to 3 = ++)” and the “Inhibition of aneurysm development/growth (aortic diameter)” value (AAA) was “relative good inhibition of AAA”. For the same compound, the “Inhibition of aneurysm development (aneurysm incidence)” value (“Inhibition … (aneurysm incidence)” below) (aneurysm) was “effective in inhibiting aneurysm development”.

`CCCc1nc2c(C)cc(-c3nc4ccccc4n3C)cc2n1Cc1ccc(-c2ccccc2C(=O)O)cc1` [Telmisartan] was tested, and the NFKb1 expression (NFKb1) was “− (0 to 1 = −)”, the CCR5 expression (CCR5) was “− (0 to 1 = −)” and the Cybb expression (Cybb) was “− (0 to 1 = −)”. The Vav1 expression (Vav1) was “− (0 to 1 = −)”, the TIMP2 expression (TIMP2) was “− (0 to 1 = −)” and the Rac2 expression (Rac2) was “− (0 to 1 = −)”. For the same compound, the “Cathepsin B expression” value (Cathepsin B) was “− (0 to 1 = −)”, the ITGB2 expression (ITGB2) was “− (0 to 1 = −)” and the Runx3 expression (Runx3) was “− (0 to 1 = −)”. For the same compound, the MAPK8 expression (MAPK8) was “++ (1.51 to 3 = ++)”, the CXCR4 expression (CXCR4) was “+++ (3.1 to 10 = +++)” and the “HMOX 1 expression” value (HMOX 1) was “− (0 to 1 = −)”. The CCR2 expression (CCR2) was “− (0 to 1 = −)”, the TNF-α expression (TNF-α) was “− (0 to 1 = −)” and the “Inhibition of aneurysm development/growth (aortic diameter)” value (AAA) was “effective in inhibiting aneurysm development”. The “Inhibition of aneurysm development/growth (aortic diameter)” value (AAA; listed as telmisartan) was “effective in inhibiting/preventing aneurysm development”, the “Inhibition … (aneurysm incidence)” value (aneurysm) was “inhibited aneurysm development well” and the “Inhibition … (aneurysm incidence)” value (aneurysm; listed as telmisartan) was “effective in inhibiting aneurysm development”.
